Experiments:
rats with no deficit = experiment: Test for spontaneous forgetting in rats with no deficit (object recognition test, visual episodic memory); type: in vivo; details: rat; for Exploration time, familiar object (recalling session) / Exploration time, new object (recalling session) / Recognition index (new/(new + familiar)): p.o. 60 min before each session, 24 h forgetting period, group 2: 0.1 mg/kg, group 3: rivastigmine 0.03 mg/kg, group 4: 0.01 + 0.03 mg/kg; for Exploration time, familiar object (recalling session) / Exploration time, new object (recalling session): 3 min test; for Discrimination between the familiar object and the new object during the recalling session (in words): p.o., inactive doses, 24 hours after the learning session
Protocol: 1. Test for Spontaneous Forgetting in Rats with No Deficit
1.) Accustomization phase: In this protocol, the animals are first subjected to a session of accustomization to the environmental context (a wooden chamber of 65×45×45 cm) for a period of 2 minutes. The time spent in active locomotion is measured using a timer. 2.) Learning phase: 24 hours later, two exactly identical objects (either metal triangles or pyramids made of Lego) are placed in the experimental device. Each rat is placed in the middle of the chamber, the nose against the wall opposite that where the objects/stimulus are located. The pairs of objects presented are alternated equitably in each of the groups of rats. The animals are left in the experimental chamber until they reach a period of exploration of the two objects equal to 20 seconds, out of a maximum period of 3 minutes. As soon as the 20 seconds of exploration are reached, the rat is put back in its housing cage. […] 3.) Recalling session: The recalling session takes place after a forgetting period of 24 h for all the groups. The rats are confronted with a pair of objects consisting of the object encountered during the learning phase and an unknown object. The rats are placed in the same way as for the learning session.
This test lasts 3 minutes, during which the time spent exploring each of the 2 objects is measured.
Conversely, if the animal has forgotten the familiar object, the times spent exploring the new object and the familiar object will be similar.
(§1) For the learning and recalling sessions, the exploring of an object is counted if the animal orients its nose toward the object, inside a perimeter of 2 centimeters around said object, or if it touches it with its nose or with its feet. If the rat moves around the object or sits on it, these behaviors are not considered to be exploratory.
(§2) The raw data are expressed in seconds.
The test compounds are administered orally 60 minutes (rat study) before each of the three sessions of the protocol.
Four experimental groups are formed, said groups receiving, respectively:
During the recalling session, 24 hours after the learning session, the times spent exploring the two objects, expressed in seconds, and the recognition index (time spent exploring the new object/total time spent exploring the new and familiar objects) are measured. • Similar exploration times with respect to the familiar object and to the new object reflect the fact that the familiar object has been forgotten, and therefore that there is a visual episodic memory deficit.
Conversely, a longer exploration time for the new object than for the familiar object reflects significant recollection of the familiar object and therefore an improvement in visual episodic memory. • A relatively low recognition index reflects the fact that the familiar object has been forgotten, and therefore that there is a visual episodic memory deficit.
Conversely, a high recognition index reflects significant recollection of the familiar object, and therefore an improvement in visual episodic memory.
The above doses are expressed in base equivalent.

[1] = test system: CD1-strain mice injected ICV with Aβ25-35 peptide; experiment: Test of short-term visual episodic memory deficit induced by ICV injections of β-amyloid protein 25-35 in mice (object recognition); type: in vivo, mouse; details: Aβ25-35 mice; for Effect on short-term recall performance levels (in words): 0.1 mg/kg each, intraperitoneally; for Exploration time, familiar object (recalling session) / Exploration time, new object (recalling session) / Recognition index (new/(new + familiar)): intraperitoneally 60 min before each session, 1 hour forgetting period, each active 0.1 mg/kg (base equivalent); for Exploration time, familiar object (recalling session) / Exploration time, new object (recalling session): 5 min test
Protocol: 2. Test of short-term visual episodic memory deficit induced by intracerebroventricular (ICV) injections of β-amyloid protein 25-35 in mice
The Aβ25-35 peptide fragment contains the 11 amino acids necessary and sufficient for inducing neurological toxicity.
The Aβ25-35 amyloid peptide is dissolved in distilled water at a final concentration of 3 mg/ml. It is then incubated at 37° C. for 4 days in order to form aggregates of toxic peptide. The control animals receive the scrambled peptide, consisting of the same amino acids, but organized according to a random sequence.
The peptide is injected intracerebroventricularly into CD1-strain mice anaesthetized with isoflurane. A microsyringe fitted with a 28-gauge needle 3 mm long is used. The needle is inserted unilaterally, 1 mm to the right of the central line equidistant from each eye and at an equal distance between the axis of the eyes and the axis of the ears. 3 μl of the aggregated peptide are injected over a period of one minute. The mice are used for the behavioral tests between 6 and 14 days after the intracerebral injection.
1.) Accustomization phase: In this protocol, the mice are first subjected to a session of accustomization to the environmental context (light grey PVC chain of 52×52×40 cm, illumination at 6 Lux) for a period of 10 minutes. The time spent in active locomotion is measured using a timer. 2.) Learning phase: 24 hours later, two exactly identical objects (either metal triangles (5.5×3.3 cm), or a square red Lego brick (3.0×3.0×3.0 cm)) are placed in the experimental device. Each mouse is placed in the middle of the chamber, the nose against the wall opposite that where the objects/stimulus are located. The pairs of objects presented are alternated equitably in each of the groups of mice. The animals are left in the experimental chamber until they reach a time spent exploring the two objects equal to 10 seconds, out of a maximum period of 3 minutes. As soon as the 10 seconds of exploration are reached, the mouse is put back in its housing cage.
3.) Recalling session: The recalling session takes place after a forgetting period of 1 hour for all the groups. […] The mice are confronted with a pair of objects consisting of the object encountered during the learning phase and an unknown object. The mice are placed in the chamber in the same way as for the learning session.
This test lasts 5 minutes, during which the time spent exploring each of the 2 objects is measured.
as §1, with “exploration” for “exploring”, “cm” for “centimeters”, “or” for “or with”
as §2
The compounds to be tested are administered intraperitoneally, 60 minutes before each of the three sessions of the protocol.
Five experimental groups were formed, receiving, respectively:
During the recalling session, i.e. 1 hour after the learning session, the times spent exploring the two objects, expressed in seconds, are measured. • Similar exploration times with respect to the familiar object and to the new object reflect the fact that the familiar object has been forgotten, and therefore that there is complete abolition of the short-term recall performance levels. • Conversely, a longer exploration time for the new object compared with the familiar object reflects a good short-term memory recall performance level.

| SMILES | Exploration time, familiar object (recalling session) (rats with no deficit) [s] | Exploration time, new object (recalling session) (rats with no deficit) [s] | Recognition index (new/(new + familiar)) (rats with no deficit) | Discrimination between the familiar object and the new object during the recalling session (in words) (rats with no deficit) | Effect on short-term recall performance levels (in words) [1] | Exploration time, familiar object (recalling session) [1] [s] | Exploration time, new object (recalling session) [1] [s] | Recognition index (new/(new + familiar)) [1] |
| --- | --- | --- | --- | --- | --- | --- | --- | --- |
| CCN(C)C(=O)Oc1cccc([C@H](C)N(C)C)c1 [rivastigmine] | 10.10 ± 1.56 | 9.42 ± 1.86 | 0.48 ± 0.05 | no significant discrimination between the familiar object and the new object |  |  |  |  |
| O=C(O)/C=C/C(=O)O.O=C(Oc1ccc(Br)cc1)N1CCN2CCC1CC2 [4-bromophenyl 1,4-diazabicyclo[3.2.2]nonane-4-carboxylate (2E)-but-2-enedioate] | 10.47 ± 0.84 | 11.10 ± 1.44 | 0.50 ± 0.04 | no significant discrimination between the familiar object and the new object | do not result in an improvement in performance levels | 4.30 ± 0.70 | 6.30 ± 0.60 | 0.60 ± 0.04 |
| COc1cc2c(cc1OC)C(=O)C(CC1CCN(Cc3ccccc3)CC1)C2 (stereo not shown) [donepezil] |  |  |  |  | do not result in an improvement in performance levels | 4.60 ± 0.70 | 5.00 ± 0.80 | 0.52 ± 0.05 |

— patent US20110136791A1, “COMBINATION OF A NICOTINIC RECEPTOR PARTIAL AGONIST AND OF AN ACETYLCHOLINESTERASE INHIBITOR, PHARMACEUTICAL COMPOSITION CONTAINING SAME AND USE THEREOF IN THE TREATMENT OF COGNITIVE DISORDERS” (priority 2008, published 2011)
